{"source": "paper PMC11820219", "about": "(Nutrients, 2025)", "key": {"α-glucosidase [1]": {"molecular_target": "T1, α-glucosidase (Saccharomyces cerevisiae, UniProt P53341)", "T1 sequence (P53341 whole entry)": "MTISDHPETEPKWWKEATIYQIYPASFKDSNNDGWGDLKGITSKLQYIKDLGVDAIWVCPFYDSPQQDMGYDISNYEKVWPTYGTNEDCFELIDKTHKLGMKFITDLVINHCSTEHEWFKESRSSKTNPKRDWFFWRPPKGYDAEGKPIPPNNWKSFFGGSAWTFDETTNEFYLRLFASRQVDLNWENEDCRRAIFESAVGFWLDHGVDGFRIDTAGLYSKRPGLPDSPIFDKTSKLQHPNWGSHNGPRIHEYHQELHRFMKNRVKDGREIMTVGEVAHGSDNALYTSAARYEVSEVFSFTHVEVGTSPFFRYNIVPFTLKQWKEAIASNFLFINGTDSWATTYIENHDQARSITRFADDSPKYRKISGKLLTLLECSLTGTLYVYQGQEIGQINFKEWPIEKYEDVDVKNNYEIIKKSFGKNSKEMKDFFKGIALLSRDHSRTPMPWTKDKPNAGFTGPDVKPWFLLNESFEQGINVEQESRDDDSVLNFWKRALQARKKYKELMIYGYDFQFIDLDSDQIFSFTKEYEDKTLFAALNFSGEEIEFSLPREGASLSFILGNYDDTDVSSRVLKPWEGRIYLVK", "assay": "FT-IR secondary structure of α-glucosidase (amide I curve fitting)", "conditions": "astragalin 100 µg/mL", "from_the_text": "The secondary conformation of α-glucosidase (1 U/mL) with or without sample treatment were detected with a Fourier transform infrared spectrometer (FT-IR) (VERTEX 7.0, BRUKER Co., Ltd., Bremen, Germany), by fitting the infrared amide type I curve (1600–1700 cm^−1)."}, "high-glucose HepG2 cells": {"test_system": "high-glucose HepG2 cells", "assay": "high-glucose (insulin-resistant) HepG2 model: glucose, TC, TG", "format": "cell-based, human", "conditions": "for hypoglycemic effect (glucose level) compared between concentrations: 80 µg/mL, superior to acarbose positive control 5 µg/mL", "description": "(§1) HepG2 cells at 10 to 40 generations were configured at a concentration of 4 × 10^5/mL. The cells suspension 100 µL was inoculated into a culture plate with DMEM (10 mL) containing glucose 4.5 g/L, 10% FBS, penicillin (1000 U/mL), and streptomycin ([…]), and cultivated in a 37 °C, 5% CO2 incubator.\nWhen the cells were increased to about 80%, insulin at a concentration of 10^−5 mmol/L was treated for 24 h to induce the formation of insulin-resistant cells. […] After the treatment of 24 h with different samples, the glucose, TC, and TG content in the HepG2 cell supernatant was measured with glucose, TC, and TG assay kits."}, "[2]": {"test_system": "AMPK signaling pathway (p-AMPK, ACC, GLUT4)", "assay": "Western blotting of AMPK pathway proteins in high-glucose HepG2 cells", "format": "cell-based, human", "description": "Protein samples of 20 µg were separated by sodium dodecyl sulfate polyacrylamide gel electrophoresis in the Bio-Rad electrophoresis apparatus (Liuyi Biotechnology Co., Ltd., Beijing, China), and then transferred to polyvinylidene fluoride membranes. The electrophoretic proteins were sealed with 5% skimmed milk at room temperature for 1 h, and the membranes were incubated overnight with primary antibodies, including AMPK, phospho-AMPK (p-AMPK), acetyl CoA carboxylase (ACC, EC 6.4.1.2), and glucose transporter 4 (GLUT4) at 4 °C. After washing the membrane with phosphate-buffered saline tween-20, the membranes were incubated with secondary antibodies at room temperature for 1 h."}, "HepG2 cells": {"test_system": "HepG2 cells", "assay": "HepG2 cell survival rate (CCK-8)", "format": "cell-based, human", "conditions": "0–200 µg/mL, 24 h", "description": "as §1\nEach sample was added to a 96-well plate with HepG2 cells and incubated in a 37 °C, 5% CO2 incubator for 24 h. After washing twice with PBS, the CCK-8 solution 100 µL was added, and incubated for another 4 h. The absorbance at 450 nm was measured using a Microplate reader (Bio TekGen5, BioTech Instruments, Co., Ltd., Winooski, VT, USA). The cells’ survival rates were calculated based on the formula as shown below:Cell survival rate (%) = A samples/A black control × 100%(5)"}, "α-glucosidase [3]": {"molecular_target": "T1, α-glucosidase", "assay": "fluorescence quenching of α-glucosidase (Stern–Volmer)", "format": "binding", "from_the_text": "The mixture was scanned using fluorescence spectroscopy (SpectraMax i3x, Molecular Devices, LLC., San Jose, CA, USA). The excitation wavelength was set at 280 nm, and the emission wavelength at 300–500 nm, with excitation and emission slit widths of 5 nm. Then, the following Stern–Volmer dynamic collision quenching equations were applied to calculate the fluorescence quenching parameters, including the quenching constants (KSV), quenching rate constant (Kq), binding constant (Ka), and binding site number (n). The equations are described below:(2) F0/F=1+KSV[Q]=1+Kqτ0[Q] (3) lgF0−F/F=lgKa+nlg[Q]"}, "[4]": {"test_system": "streptozocin-induced diabetic mice", "set-up": "method as in PMID 27687881", "conditions": "cited from earlier work"}, "Müller cells": {"test_system": "Müller cells", "conditions": "high glucose; cited from earlier work"}, "α-glucosidase [5]": {"molecular_target": "T1, α-glucosidase", "conditions": "reported compound; cited from earlier work"}, "[6]": {"conditions": "different concentrations, high-glucose HepG2 cells"}}, "note": "pIC50: −log10 of the molar value."}
{"smiles": "O=c1c(O[C@@H]2O[C@H](CO)[C@@H](O)[C@H](O)[C@H]2O)c(-c2ccc(O)cc2)oc2cc(O)cc(O)c12", "note": "[astragalin, kaempferol-3-O-β-D-glucopyranoside]", "values": [{"measurement": "β-turn content of α-glucosidase with astragalin", "setting": "α-glucosidase [1]; without astragalin 11.72%", "value": 19.30, "unit": "%"}, {"measurement": "β-sheet content of α-glucosidase with astragalin", "setting": "α-glucosidase [1]; without astragalin 11.94%", "value": 4.71, "unit": "%"}, {"measurement": "random coil content of α-glucosidase with astragalin", "setting": "α-glucosidase [1]; without astragalin 21.08%", "value": 38.79, "unit": "%"}, {"measurement": "hypoglycemic effect (glucose level) compared between concentrations", "setting": "high-glucose HepG2 cells", "value": "the activity was the strongest"}, {"measurement": "hypoglycemic effect (glucose level) compared between concentrations", "setting": "high-glucose HepG2 cells; listed as Astragalin", "value": "best hypoglycemic effect"}, {"measurement": "glucose level in the cells", "setting": "high-glucose HepG2 cells; 20, 80, and 200 µg/mL, 24 h, insulin-induced high-glucose HepG2", "value": "reduced the glucose level in the cells"}, {"measurement": "TC level", "setting": "high-glucose HepG2 cells; [6]", "value": "reduced the levels of TC"}, {"measurement": "TG level", "setting": "high-glucose HepG2 cells; [6]", "value": "reduced the levels of TC and TG"}, {"measurement": "GLUT4 protein expression level", "setting": "[2]; 20 µg/mL", "value": "significantly increased"}, {"measurement": "ACC protein expression level", "setting": "[2]; 80 µg/mL", "value": "significantly down-regulated"}, {"measurement": "p-AMPK protein expression level", "setting": "[2]; 80 and 200 µg/mL", "value": "up-regulated"}, {"measurement": "CCK-8 cell survival", "setting": "HepG2 cells", "value": "within the safe range"}, {"measurement": "KSV (quenching constant)", "setting": "α-glucosidase [3]; 298 K", "value": "9.093 ×10^3 Lmol^−1"}, {"measurement": "n (binding site number)", "setting": "α-glucosidase [3]; 298 K", "value": 1.238}, {"measurement": "KSV (quenching constant)", "setting": "α-glucosidase [3]; 304 K", "value": "7.903 ×10^3 Lmol^−1"}, {"measurement": "n (binding site number)", "setting": "α-glucosidase [3]; 304 K", "value": 1.1905}, {"measurement": "KSV (quenching constant)", "setting": "α-glucosidase [3]; 310 K", "value": "7.061 ×10^3 Lmol^−1"}, {"measurement": "n (binding site number)", "setting": "α-glucosidase [3]; 310 K", "value": 0.8446}, {"measurement": "maximum fluorescence emission wavelength of α-glucosidase with astragalin", "setting": "α-glucosidase [3]; free enzyme around 346 nm, excitation 280 nm, 298 K", "value": 349, "unit": "nm"}, {"measurement": "Kq values", "setting": "α-glucosidase [3]; under three temperature conditions, compared with maximum diffusion collision quenching constant", "value": "higher than 2.0 × 10^10 Lmol^−1 s^−1"}, {"measurement": "hypoglycemic effects in diabetic mice", "setting": "[4]", "value": "improved the glucose tolerance and reduced the level of glucose"}, {"measurement": "vascular endothelial growth factor over-expression", "setting": "Müller cells", "value": "decreased the over-expression"}]}
{"smiles": "COc1cc(OC)c2c(ccc3cc(OC)c(O)cc32)c1", "note": "[batatasin I]", "values": [{"measurement": "pIC50", "setting": "α-glucosidase [5]", "value": 2.59}]}
